Reference: patent US20110230481A2, “DERIVATIVES OF TETRABROMOBENZIMIDAZOLE, A PROCESS FOR THE PREPARATION THEREOF, A PHARMACEUTICAL COMPOSITION COMPRISING THE SAME, A METHOD OF USING THE SAME, A METHOD FOR MODULATING OR REGULATING SERINE/THREONINE KINASES, AND SERINE/THREONINE KINASES MODULATING AGENT” (SELVITA S.A., priority 2009, published 2011)
Where two headings read alike, the source gives them in different places.

Experiments:
PIM1 = PIM1 (Homo sapiens, UniProt P11309); assay: Radiometric kinase assay (HotSpot); settings: for Selectivity for Pim-1 over CK2α: ratio of IC50 values
PIM1, sequence (P11309 whole entry): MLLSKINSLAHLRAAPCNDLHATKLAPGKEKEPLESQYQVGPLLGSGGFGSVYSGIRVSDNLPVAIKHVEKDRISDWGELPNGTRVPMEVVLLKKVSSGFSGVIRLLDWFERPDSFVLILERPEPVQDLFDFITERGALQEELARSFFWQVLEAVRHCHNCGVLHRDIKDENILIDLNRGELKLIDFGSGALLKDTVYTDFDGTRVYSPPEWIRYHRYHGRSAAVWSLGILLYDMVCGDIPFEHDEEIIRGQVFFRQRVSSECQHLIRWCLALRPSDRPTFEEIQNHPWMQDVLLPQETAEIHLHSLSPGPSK
Method: (§2) Kinase assays were performed at Reaction Biology Corporation (www.reactionbiology.com, Malvern Pa.) using the “HotSpot” assay platform. This assay platform is based on a radiometric filtration binding assay and is considered as the “gold standard” to which non-radiometric methods are compared. In this assay format, the kinase reaction is performed in the presence of 32 P-γ-ATP or 33 P-γ-ATP, followed by binding of the final radioisotope labeled peptide product to filters after which unreacted phosphate is washed away and the levels of phosphorylated peptide are measured.

[1] = tested on: human acute lymphocytic leukemia E6.1 Jurkat cells; assay: Growth inhibition test (MTS); format: cell-based; settings: 72 hours, read-out: Cytotoxicity in MTS assay (ED50)
Method: (§1) Twenty thousand cells of human acute lumphocytic leukemia E6.1 Jurkat were inoculated into each well of a 96-well microplate (manufactured by Corning Corp.) using RPMI 8226 medium (culture medium) containing 10% fetal calf serum (FCS). The same day, a dimethyl sulfoxide (DMSO) solution of each test compound prepared in a concentration of 10 mmol/L was further diluted with DMSO to the desired concentrations (0.1, 0.5, 1, 2.5, 5 and 10 micromol/L), and the diluted solution was added to each well. The individual wells were further cultured in 5% carbon dioxide at 37° C. for 72 hours. After completion of the culture, 10 μl MTS (3-(4,5-Dimethyl-2-thiazolyl)-5-(carboxymethoxyphenyl)-2-(4-sulfophenyl)-2H-tetrazolium, inner salt assay (CellTiter96® AQueous One Solution Cell Proliferation Assay, Promega) was added to each well, and culturing was performed in 5% carbon dioxide at 37° C. for 2 hours. Using a microplate spectrophotometer (Synergy 2 multi-mode microplate reader (BioTek)), the absorbance of each well was measured at 490 nm. The value for cells not incorporated with a test compound was designated as 100%. By comparing these values with the absorbance difference obtained at the well in which each test compound was added, the cell viability (% viability) after treatment with the test compound was calculated.

[2] = tested on: human chronic myelocytic leukemia K562 cells; assay: Growth inhibition test (MTS); format: cell-based; settings: 72 hours
Method: as §1, with “Ten” for “Twenty”, “chronic myelocytic” for “acute lumphocytic”, “K562” for “E6.1 Jurkat”, “Iscove's MDM” for “RPMI 8226”

PIM3 = PIM3 (Homo sapiens, UniProt Q86V86); assay: Radiometric kinase assay (HotSpot); settings: for Selectivity for Pim-3 over CK2α: ratio of IC50 values
Method: as §2

[3] = tested on: human prostate carcinoma DU145 cells; assay: Growth inhibition test (MTS); format: cell-based; settings: 72 hours
Method: as §1, with “Two” for “Twenty”, “prostate carcinoma DU145” for “acute lumphocytic leukemia E6.1 Jurkat”, “Corp.), and” for “Corp.)”, “DMEM” for “RPMI 8226”, “innersalt” for “inner salt”

PIM2 = PIM2 (Homo sapiens, UniProt Q9P1W9); assay: Radiometric kinase assay (HotSpot); settings: for Selectivity for Pim-2 over CK2α: ratio of IC50 values
PIM2, sequence (Q9P1W9 whole entry): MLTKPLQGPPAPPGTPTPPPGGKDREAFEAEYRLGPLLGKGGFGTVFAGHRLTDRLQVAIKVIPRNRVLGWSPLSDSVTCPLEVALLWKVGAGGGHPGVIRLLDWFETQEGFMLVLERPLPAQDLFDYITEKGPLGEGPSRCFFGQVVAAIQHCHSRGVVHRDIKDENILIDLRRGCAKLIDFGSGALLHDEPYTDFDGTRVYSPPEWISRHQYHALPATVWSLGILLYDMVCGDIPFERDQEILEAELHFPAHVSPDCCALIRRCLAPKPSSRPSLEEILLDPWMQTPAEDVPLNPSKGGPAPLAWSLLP
Method: as §2

CK2α = CK2α (Homo sapiens, UniProt P68400); assay: Radiometric kinase assay (HotSpot)
CK2α, sequence (P68400 whole entry): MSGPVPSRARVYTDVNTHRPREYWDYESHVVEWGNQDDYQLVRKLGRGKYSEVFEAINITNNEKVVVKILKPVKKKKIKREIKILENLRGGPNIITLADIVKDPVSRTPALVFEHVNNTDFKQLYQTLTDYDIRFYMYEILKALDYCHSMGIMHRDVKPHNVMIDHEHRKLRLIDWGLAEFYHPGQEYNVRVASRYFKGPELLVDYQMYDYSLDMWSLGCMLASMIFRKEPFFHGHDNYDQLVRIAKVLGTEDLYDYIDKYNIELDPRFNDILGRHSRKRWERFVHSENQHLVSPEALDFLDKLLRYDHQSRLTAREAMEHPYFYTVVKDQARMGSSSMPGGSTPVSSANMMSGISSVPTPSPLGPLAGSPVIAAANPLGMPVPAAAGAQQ
Method: as §2

[4] = tested on: human colorectal adenocarcinoma SW480 cells; assay: Growth inhibition test (MTS); format: cell-based; settings: 72 hours
Method: as §1, with “Two” for “Twenty”, “colorectal adenocarcinoma SW480” for “acute lumphocytic leukemia E6.1 Jurkat”, “Corp.), and” for “Corp.)”, “DMEM/Ham's F121:1” for “RPMI 8226”, “5%” for “10%”

[5] = read-out: Inhibitory activity (IC50 in nM) in radiometric cell free assay, Pim-1, ATP 1 μM, peptide 5 μM
[6] = read-out: Inhibitory activity (IC50 in nM) in radiometric cell free assay, Pim-3, ATP 1 μM, peptide 20 μM
[7] = read-out: Inhibitory activity (IC50 in nM) in radiometric cell free assay, Pim-2, ATP 1 μM, peptide 5 μM
[8] = read-out: Inhibitory activity (IC50 in nM) in radiometric cell free assay, CK2α, ATP 1 μM, peptide 20 μM

## CN(C)c1nc2c(Br)c(Br)c(Br)c(Br)c2[nH]1 [DMAT, reference compound]
PIM1; [5]
  IC50: 64.6 nM
[1]
  IC50: 8180 nM
[2]
  Cytotoxicity in MTS assay (ED50): >10 µM
PIM3; [6]
  IC50: 87.3 nM
[3]
  Cytotoxicity in MTS assay (ED50): >10 µM
PIM2; [7]
  IC50: 2460 nM

## CN1CCN(c2nc3c(Br)c(Br)c(Br)c(Br)c3[nH]2)CC1 [Compound 21, 4,5,6,7-tetrabromo-2-(4-methylpiperazin-1-yl)-1H-benzo[d]imidazole]
PIM1
  IC50: 66.1 nM
  Selectivity for Pim-1 over CK2α: 27.6
CK2α
  IC50: 1830 nM
[1]; Homo sapiens
  IC50: 2630 nM
PIM3
  IC50: 84.1 nM
  Selectivity for Pim-3 over CK2α: 21.7
[3]
  Cytotoxicity in MTS assay (ED50): 9.54 µM
PIM2
  IC50: 1690 nM
  Selectivity for Pim-2 over CK2α: 1.1

## Brc1c(Br)c(Br)c2[nH]c(NCCN3CCOCC3)nc2c1Br [Compound 16, 4,5,6,7-tetrabromo-N-(2-morpholinoethyl)-1H-benzo[d]imidazol-2-amine]
PIM1
  IC50: 67.7 nM
  Selectivity for Pim-1 over CK2α: 101.6
CK2α
  IC50: 6880 nM
[1]; Homo sapiens
  IC50: 2460 nM
PIM3
  IC50: 114 nM
  Selectivity for Pim-3 over CK2α: 60.1
[3]
  Cytotoxicity in MTS assay (ED50): 8.64 µM
PIM2
  IC50: 3010 nM
  Selectivity for Pim-2 over CK2α: 2.3

## CN(C)c1nc2c(Br)c(Br)c(Br)c(Br)c2n1CC(=O)O [Compound K66, reference compound]
PIM1
  Selectivity for Pim-1 over CK2α: 1.1
PIM1; [5]
  IC50: 194 nM
CK2α; [8]
  IC50: 206 nM
[1]
  IC50: >10000 nM
[2]
  Cytotoxicity in MTS assay (ED50): >10 µM
PIM3
  Selectivity for Pim-3 over CK2α: 2.1
PIM3; [6]
  IC50: 96.3 nM
[4]
  Cytotoxicity in MTS assay (ED50): >10 µM
[3]
  Cytotoxicity in MTS assay (ED50): >10 µM
PIM2
  Selectivity for Pim-2 over CK2α: 0.2
PIM2; [7]
  IC50: 954 nM

## Brc1c(Br)c(Br)c2[nH]nnc2c1Br [TBB, reference compound]
PIM1; [5]
  IC50: 1840 nM
[1]
  IC50: >10000 nM
[2]
  Cytotoxicity in MTS assay (ED50): >10 µM
PIM3; [6]
  IC50: 269 nM
[4]
  Cytotoxicity in MTS assay (ED50): >10 µM
[3]
  Cytotoxicity in MTS assay (ED50): >10 µM
PIM2; [7]
  IC50: > 20000 nM

## Brc1c(Br)c(Br)c2c(Br)n[nH]c2c1Br [Compound K64, reference compound]
PIM1
  Selectivity for Pim-1 over CK2α: 2.1
PIM1; [5]
  IC50: 308 nM
CK2α; [8]
  IC50: 637 nM
[1]
  IC50: >10000 nM
[2]
  Cytotoxicity in MTS assay (ED50): >10 µM
PIM3
  Selectivity for Pim-3 over CK2α: 3.0
PIM3; [6]
  IC50: 212 nM
[4]
  Cytotoxicity in MTS assay (ED50): 9.13 µM
[3]
  Cytotoxicity in MTS assay (ED50): >10 µM
PIM2
  Selectivity for Pim-2 over CK2α: 0.7
PIM2; [7]
  IC50: 871 nM

## NCCCNc1nc2c(Br)c(Br)c(Br)c(Br)c2[nH]1 [Compound 11, N-(3-aminopropyl)-4,5,6,7-tetrabromo-1H-benzo[d]imidazol-2-amine]
PIM1
  IC50: 4.8 nM
  Selectivity for Pim-1 over CK2α: 211.7
CK2α
  IC50: 1020 nM
[1]; Homo sapiens
  IC50: 1750 nM
[2]
  Cytotoxicity in MTS assay (ED50): 7.48 µM
PIM3
  IC50: 23.3 nM
  Selectivity for Pim-3 over CK2α: 43.6
[4]
  Cytotoxicity in MTS assay (ED50): 3.46 µM
[3]
  Cytotoxicity in MTS assay (ED50): 7.62 µM
PIM2
  IC50: 98.2 nM
  Selectivity for Pim-2 over CK2α: 10.3

## Brc1c(Br)c(Br)c2[nH]c(NCCN3CCCCC3)nc2c1Br [Compound 13, 4,5,6,7-tetrabromo-N-(2-(piperidin-1-yl)ethyl)-1H-benzo[d]imidazol-2-amine]
PIM1
  IC50: 23.1 nM
  Selectivity for Pim-1 over CK2α: 98.2
CK2α
  IC50: 2260 nM
[1]; Homo sapiens
  IC50: 1340 nM
PIM3
  IC50: 60.7 nM
  Selectivity for Pim-3 over CK2α: 37.3
[3]
  Cytotoxicity in MTS assay (ED50): 4.1 µM
PIM2
  IC50: 897 nM
  Selectivity for Pim-2 over CK2α: 2.5

## Brc1c(Br)c(Br)c2[nH]c(N3CCNCC3)nc2c1Br [Compound 20, 4,5,6,7-tetrabromo-2-(piperazin-1-yl)-1H-benzo[d]imidazole]
PIM1
  IC50: 76.9 nM
  Selectivity for Pim-1 over CK2α: 1.7
CK2α
  IC50: 132 nM
[1]; Homo sapiens
  IC50: 2190 nM
[2]
  Cytotoxicity in MTS assay (ED50): 7.25 µM
PIM3
  IC50: 42 nM
  Selectivity for Pim-3 over CK2α: 3.1
[4]
  Cytotoxicity in MTS assay (ED50): 4.91 µM
[3]
  Cytotoxicity in MTS assay (ED50): 9.27 µM
PIM2
  IC50: 326 nM
  Selectivity for Pim-2 over CK2α: 0.4

## Brc1c(Br)c(Br)c2[nH]c(NCCN3CCCC3)nc2c1Br [Compound 14, 4,5,6,7-tetrabromo-N-(2-(pyrrolidin-1-yl)ethyl)-1H-benzo[d]imidazol-2-amine]
PIM1
  IC50: 43.8 nM
  Selectivity for Pim-1 over CK2α: 19.0
CK2α
  IC50: 833 nM
[1]; Homo sapiens
  IC50: 2650 nM
PIM3
  IC50: 28.2 nM
  Selectivity for Pim-3 over CK2α: 29.6
[3]
  Cytotoxicity in MTS assay (ED50): 3.14 µM
PIM2
  IC50: 618 nM
  Selectivity for Pim-2 over CK2α: 1.3

## Brc1c(Br)c(Br)c2[nH]cnc2c1Br [TBI, reference compound]
PIM1; [5]
  IC50: 1670 nM
[1]
  IC50: >10000 nM
[2]
  Cytotoxicity in MTS assay (ED50): >10 µM
PIM3; [6]
  IC50: 2940 nM
[4]
  Cytotoxicity in MTS assay (ED50): 7.21 µM
[3]
  Cytotoxicity in MTS assay (ED50): >10 µM
PIM2; [7]
  IC50: > 20000 nM
